Test results taken from patent EP4417202A1, “ANTI-CANCER ACTION OF BAG1-SELECTIVE IMIDAZOPYRIDINE COMPOUNDS IN STEROID HORMONE RECEPTOR-POSITIVE BREAST AND PROSTATE CANCER” (Karlsruher Institut für Technologie, priority 2023, dated 2024).

Assays:
[1] = test system: BAG1 in a complex with mortalin; test: Co-immunoprecipitation in MCF-7 cells; type: cell-based; conditions: 1 µM, 48 h
Method: (§1) Cells were harvested, washed with PBS, and lysed using NP-40 lysis buffer. Protein A agarose beads (Thermo Fisher Scientific) were mixed with protein G agarose beads (Thermo Fisher Scientific) (4:1) and preincubated overnight at 4°C with anti-p53 or anti-BAG1 or control IgG antibody. Cellular extracts from X15695 treated and untreated cells (1,000 µg) were incubated with antibody-preincubated protein A/G agarose beads for 3 to 4 h at room temperature. The beads with immunoprecipitated proteins were collected at 4°C by centrifugation at 1,000 g for 5 min and washed 4 to 5 times with NP-40 lysis buffer. The immunoprecipitated proteins were eluted by heating in SDS sample buffer for 5 min at 95°C and resolved on SDS-PAGE. Thereafter, they were subjected to Western blot analysis to detect mortalin, BAG1, BAG2, BAG5 and p53. Cellular extracts containing 50 to 70 µg protein from X15695 treated and untreated cells were used as the input control for the targeted proteins.

[2] = test system: p53/mortalin complex; test: Co-immunoprecipitation in MCF-7 cells; type: cell-based; conditions: 1 µM, 48 h
Method: as §1

[3] = test system: T47D cells; test: FACS cell cycle analysis; type: cell-based; conditions: 1 µM, 48 h, 7-AAD
Method: (§2) LNCaP, LAPC-4, MCF-7 and T47D cells were treated with 1 µM X15695 or DMSO for 48 h. Single cell suspensions (1×10^6 cells) were prepared in 150 µl PBS/10% FBS. Cells were fixed by addition of 5 ml ice-cold ethanol (70%) and over-night incubation at 4°C. Fixed LNCaP and LAPC-4 cells were stained with 20 µM DRAQ5 (5mM stock, Thermo Fisher Scientific) and incubated for 15 min at room temperature. Fixed MCF-7 and T47D cells were resuspended in PBS at concentration of 1×10^6 cells/100 µl and stained by addition of 5 µl of 7-AAD (BD Bioscience, San Diego, CA, USA) for 15 min at room temperature in the dark. Flow cytometry analysis was performed using BD FACSAria (BD Biosciences, Franklin Lakes, NJ, USA). Doublets and dead cells were excluded from the analysis. Flow cytometry data were analyzed using FlowJo 10.8.1 cytometry analysis software (FlowJo, LLC).

[4] = test system: MCF-7 cells; test: FACS cell cycle analysis; type: cell-based; conditions: 1 µM, 48 h, 7-AAD
Method: as §2

[5] = test system: LNCaP cells; test: FACS cell cycle analysis; type: cell-based; conditions: 1 µM, 48 h, DRAQ5
Method: as §2

[6] = test system: LAPC-4 cells; test: FACS cell cycle analysis; type: cell-based; conditions: 1 µM, 48 h, DRAQ5
Method: as §2

[7] = test system: ERα
Method: For Western blotting, cells were lysed in NP-40 lysis buffer (1% NP-40, 50 mM Tris-HCl, pH 8.0, 150 mM NaCl, 5 mM EDTA) or 1× passive lysis buffer (Promega, Germany) for 15 min on ice. Cell debris was removed by centrifugation at 13,000 rpm for 10 min and used for SDS-polyacrylamide gel electrophoresis (PAGE) and Western blotting.
Western Blotting was carried out using standard protocols with antibodies: p53 (clone DO1), p53 (Sp5, Thermo Fisher Scientific Karlsruhe, Germany), Mdm2 (4B2, Abcam, Cambridge, UK). […] Secondary goat anti-mouse and goat anti-rabbit antibodies were purchased from DAKO (Bollschweil, Germany).

[8] = test system: p53 target genes; test: Quantitative RT-PCR of p53 target genes in MCF-7 and T47D cells; type: cell-based; conditions: 1 µM, absence and presence of E2, 16 h
Method: MCF-7, T47D and LNCaP cells (5×10^4 each) were seeded in 6-well plates and cultured with hormone-depleted medium for 3 days. Subsequently, the MCF-7 and T47D cells were treated with 10 nM 17-β-estradiol (E2) or dihydrotestosterone (DHT) for the LNCaP cells, 1 µM) X15695 (for the MCF-7 and T47D cells) or 5 µM) for LNCaP cells and X15695 together with E2 or DHT. A 1 h pre-treatment with X15695 was performed prior to treatment with E2 or DHT for 16 h. RNA was extracted using innuPREP RNA mini Kit 2.0 (Analytic Jena, Berlin, Germany). 1 µg RNA per sample was used as input material for the RNA sample preparations. Sequencing libraries were generated using NEBNext® UltraTM RNA Library Prep Kit for Illumina® (NEB, USA) following the manufacturer's recommendations and index codes were added to attribute sequences to each sample. The clustering of the index-coded samples was performed on a cBot Cluster Generation System using PE Cluster Kit cBot-HS (Illumina) according to the manufacturer's instructions. After cluster generation, the library preparations were sequenced on an Illumina platform and paired-end reads were generated. Library preparation and sequencing were carried out by Novogene Europe, Cambridge, UK. […] Select target genes were analyzed by RT-PCR experiments with RNA from the samples used for the RNA-seq analysis. […]

[9] = test system: AR; test: Western blot of AR level in prostate cancer cells; type: cell-based; conditions: LNCaP and 22Rv.1 cells, 24 h

Fc1ccc(-c2cn3cc(C(F)(F)F)cc(Cl)c3n2)cc1 [Compound X15695, 8-Chloro-2-(4-fluorophenyl)-6-(trifluoromethyl)imidazo[1,2-a]pyridine]
BAG1-mortalin interaction [1]: indeed decreased this interaction
p53-mortalin interaction [2]: decreased this interaction
cell cycle arrest [3]: G2/M cell cycle arrest
cell cycle arrest [4]: G1/S phase arrest
cell cycle arrest [5]: G1/S phase arrest
cell cycle arrest [6]: G2/M arrest
ERα downregulation over time ([7]; MCF-7 cells, 1 µM, time course): rather slow but more sustained downregulation lasing over 24 to 48 h
concentration sufficient to downregulate ERα ([7]; MCF-7 cells, 8 h): ≤ 1 nM
ERα level ([7]; immunoblotting, MCF-7 and T47D cells, 48 h): dose-dependently decreased ERα level
expression of p53 target genes [8]: upregulation of expression of p53 target genes
AR level [9]: did not strongly downregulate AR level
